Measurements from patent US20240252668A1, “ANTIBODY DRUG CONJUGATES AND METHODS FOR MAKING THEREOF” (Novartis AG, priority 2021, published 2024).
Like-named read-outs stand apart in the source and are kept apart here. Starred links: 1 amine or outer side, 2 acyl side, 3 side chain; linkers in the order of their positions; H or OH if unused. Positions of bridges follow the written chain, without caps; N, C: chain ends. Non-standard residues stand in square brackets, D forms with d. Residues, ends and D or L forms follow the SMILES beside them. ξ: configuration not given here. *: point of attachment. Leu(3R-O(AcLeu(3R-OH))) = CC(=O)N[C@H](C(=O)O[C@H](C(C)C)[C@H](N)C(=O)O)[C@H](O)C(C)C; Leu(3R-OH,Nα-propionyl) = CCC(=O)N[C@H](C(=O)*)[C@H](O)C(C)C; X1 = CC(C)[C@@H](O[*:3])[C@H](N[*:1])C(=O)[*:2]; ξLeu(3ξ-OH) = CC(C)C(O)C(N)C(=O)O; NMeT = CN[CH](C(=O)O)[CH](C)O; dPhLac = O=C(O)[C@H](O)Cc1ccccc1; PhLac = O=C(O)[CH](O)Cc1ccccc1; NMeA = CN[CH](C)C(=O)O; dNMeA = CN[C@H](C)C(=O)O; NMeDha = C=C(NC)C(=O)O

How the values were obtained:
[1] = tested on: A375 skin melanoma cell line (homozygous BRAF V600E); experiment: Cell proliferation assay (resazurin cell viability), A375 cell line; type: cell-based
Description: (§1) Cell Proliferation Assays with Chromodepsins (compounds (A1) and 2-15): Cell line descriptions: 92.1—uveal melanoma cell line, derived from primary tumor, harboring heterozygous GNAQ Q209L mutation. Purchased from Sigma Aldrich. MP41 (CRL-3297) -uveal melanoma cell line, derived from primary tumor, harboring heterozygous GNA11 Q209L mutation. Purchased from ATCC. A375—skin melanoma cell line, harboring homozygous BRAF V600E mutation. Origin: Cancer Cell Line Encyclopedia (CCLE). SK-MEL-30—skin melanoma cell line, harboring heterozygous NRAS Q61K mutation. Origin: CCLE.
(§2) Cells were cultured in 96-well plates in a total volume of 100 μL at 37° C., 5% CO2 and 95% relative humidity. All cell lines were cultured in RPMI Medium (RPMI 1640 w/o L-glutamine, Bioconcept ref. 1-41F01-I) except A375, DMEM medium (DMEM high glucose (4.5 g/L), Bioconcept, ref. 1-26F01-I), and supplemented with 10% FCS (Bioconcept, ref. 2-01F30-I). Two to three thousand cells were seeded in 96-well plates per well the night before they were treated with compounds (concentration range: from 260 nM to 0.036 nM with ⅓ dilution steps; for 7 the concentration range was increased from 10000 nM to 1.52 nM with ⅓ dilution steps). Cell viability was measured by addition of 10 ul of resazurin per well after 96 hours of treatment. Results were analyzed and plotted using GraphPad Prism 9.0.1.

[2] = tested on: SK-MEL-30 skin melanoma cell line (heterozygous NRAS Q61K); experiment: Cell proliferation assay (resazurin cell viability), SK-MEL-30 cell line; type: cell-based
Description: as §1, §2

[3] = tested on: 92.1 and MP41 cell lines (GNAQ/GNA11 mutant uveal melanoma); experiment: Cell proliferation assays, potency ranking over both uveal melanoma lines; type: cell-based; details: for loss of potency compared to compound (A1) (growth inhibition): 92.1 and MP41 cell lines
Description: The selective antiproliferative profile of the chromodepsins against GNAQ/GNA11 mutant cell lines is confirmed by the lack of activity against the A375 and SK MEL 30 cell lines that are independent from GNAQ/GNA11 signaling. The potency ranking using the 92.1 and MP41 cell lines is in good agreement with the previously SAR studies. […] These findings are in line with a recent report from Voss et al., highlighting the importance of the “lipophilic anchors” of compound (A1) at the residues varied in compounds 2 and 3, in context of binding kinetics and prolonged residence time on the target proteins. The retained potency of compound 4 indicates a promising exit vector for potential synthetic or biosynthetic modifications of the scaffold. […] The linearized depsipeptides compounds 5-7 lack any antiproliferative activity. In this experimental setup, the cellular permeability of the compounds was a crucial factor contributing to the observed antiproliferative potency. Therefore, all compounds were characterized in a low efflux MCDK assay and determined their exposed polar surface areas (EPSA) in order to assess their passive cellular permeabilities. All macrocyclic chromodepsins that feature the N acyl Hle side chain show similar results concerning their % fraction absorbed (% FA; average ˜60% FA+20%) and EPSA values.
as §1, §2

[4] = EPSA determination by supercritical fluid chromatography; type: physicochemical; details: for EPSA: modified EPSA method, SFC
Protocol: […] by supercritical fluid chromatography: Compounds (A1) and 2-15 were tested by supercritical fluid chromatography (SFC) to determine their ESAPSA values. Samples were analyzed using a Chirex 3014 column ([…], 3×100 mm column, 100 Å pore size; Phenomenex. The starting conditions were 5% methanol containing 20 mM ammonium formate and 95% scCO2. The gradient was increased linearly to 60% methanol containing 20 mM ammonium formate in 4.5 min.

[5] = tested on: MP41 uveal melanoma cell line (heterozygous GNA11 Q209L); experiment: Cell proliferation assay (resazurin cell viability), MP41 cell line; type: cell-based
Description: as §1, §2

[6] = tested on: 92.1 uveal melanoma cell line (heterozygous GNAQ Q209L); experiment: Cell proliferation assay (resazurin cell viability), 92.1 cell line; type: cell-based
Description: as §1, §2

[7] = tested on: MDCK-LE monolayers; experiment: Cell-based transwell assay with MDCK-low efflux monolayers (passive permeability); type: in vitro ADME; details: for % Fraction absorbed / % Recovery / Papp A − B: MDCK-LE monolayers
Protocol: Cell-based transwell assays with MDCK-low efflux monolayers: Compounds (A1) and 2-15 were tested in MDCK cell sub-clones with low effluxt ransporter activity (MDCK-LE) in order to determine their passive permeability. The incubations were performed at a contract research organization as described previously.

[8] = A375 (GNAQ/11 wild type), 96 hours of treatment, read-out: GI50 by cell line, A375
[9] = A375 cell line, average of Rep. 1 and 2, read-out: GI50 A375 Average
[10] = A375 cell line, replicate 1, read-out: GI50 A375 Rep. 1
[11] = A375 cell line, replicate 2, read-out: GI50 A375 Rep. 2
[12] = SK-MEL-30 (GNAQ/11 wild type), 96 hours of treatment, read-out: GI50 by cell line, SK-MEL-30
[13] = SK-MEL-30 cell line, average of Rep. 1 and 2, read-out: GI50 SK-MEL-30 Average
[14] = SK-MEL-30 cell line, replicate 1, read-out: GI50 SK-MEL-30 Rep. 1
[15] = SK-MEL-30 cell line, replicate 2, read-out: GI50 SK-MEL-30 Rep. 2
[16] = MP41 (GNA11 Q209L), 96 hours of treatment, read-out: GI50 by cell line, MP41
[17] = MP41 cell line, average of Rep. 1 and 2, read-out: GI50 MP41 Average
[18] = MP41 cell line, replicate 1, read-out: GI50 MP41 Rep. 1
[19] = MP41 cell line, replicate 2, read-out: GI50 MP41 Rep. 2
[20] = 92.1 (GNAQ Q209L), 96 hours of treatment, read-out: GI50 by cell line, 92.1
[21] = 92.1 cell line, average of Rep. 1 and 2, read-out: GI50 92.1 Average
[22] = 92.1 cell line, replicate 1, read-out: GI50 92.1 Rep. 1
[23] = 92.1 cell line, replicate 2, read-out: GI50 92.1 Rep. 2
[24] = versus macrocyclic chromodepsins with N-acyl-Hle side chain

Compound | GI50 [1, 8] | GI50 [1, 9] | GI50 [1, 10] | GI50 [1, 11] | GI50 [2, 12] | GI50 [2, 13] | GI50 [2, 14] | GI50 [2, 15] | EPSA [4] | GI50 [5, 16] | GI50 [5, 17] | GI50 [5, 18] | GI50 [5, 19] | GI50 [6, 20] | GI50 [6, 21] | GI50 [6, 22] | GI50 [6, 23] | % Fraction absorbed [7] | % Recovery [7] | Papp A − B [7] | other results
C=C1C(=O)N[C@@H](C)C(=O)N(C)[C@@H](C)C(=O)N[C@@H]([C@H](OC(=O)[C@@H](NC(C)=O)[C@H](O)C(C)C)C(C)C)C(=O)N(C)[C@@H]([C@@H](C)OC)C(=O)O[C@H](C(C)C)[C@H](NC(C)=O)C(=O)O[C@H](Cc2ccccc2)C(=O)N1C [Compound 8] (Ac-[X1][dPhLac][NMeDha]A[NMeA][Leu(3R-O(AcLeu(3R-OH)))][NMeT](Me); ester 1-C) | > 260 nM | > 260 nM | > 260 nM | > 260 nM | > 260 nM | > 260 nM | > 260 nM | > 260 nM | 94 A^2 | 0.4 nM | 0.4 nM | 0.33 nM | 0.46 nM | 1 nM | 1 nM | 0.82 nM | 1.24 nM | 70.4% | 78% | 5.84 ×10⁻⁶ cm/s | loss of potency compared to compound (A1) (growth inhibition) [3]: two to three
CCC(=O)N[C@H](C(=O)O[C@H](C(C)C)[C@@H]1NC(=O)[C@H](C)N(C)C(=O)[C@H](C)NC(=O)[C@@H](C)N(C)C(=O)[C@@H](Cc2ccccc2)OC(=O)[C@@H](NC(C)=O)[C@@H](C(C)C)OC(=O)[C@H]([C@@H](C)OC)N(C)C1=O)[C@H](O)C(C)C [Compound 11] (Ac-[X1][dPhLac][dNMeA]A[NMeA][X1](Leu(3R-OH,Nα-propionyl))[NMeT](Me); ester 1-C) | > 260 nM | > 260 nM | > 260 nM | > 260 nM | > 260 nM | > 260 nM | > 260 nM | > 260 nM | 95 A^2 | 0.7 nM | 0.7 nM | 0.54 nM | 0.78 nM | 1.8 nM | 1.8 nM | 1.4 nM | 2.24 nM | 79.5% | 76% | 8.5 ×10⁻⁶ cm/s | loss of potency compared to compound (A1) (growth inhibition) [3]: two to three
C=C1C(=O)N[C@@H](C)C(=O)N(C)[C@@H](C)C(=O)N[C@@H]([C@H](OC(=O)[C@@H](NC(=O)CC)[C@H](O)C(C)C)C(C)C)C(=O)N(C)[C@@H]([C@@H](C)OC)C(=O)O[C@H](C)[C@H](NC(C)=O)C(=O)O[C@H](Cc2ccccc2)C(=O)N1C [Compound 14] (Ac-T[dPhLac][NMeDha]A[NMeA][X1](Leu(3R-OH,Nα-propionyl))[NMeT](Me); ester 1-C) | > 260 nM | > 260 nM | > 260 nM | > 260 nM | > 260 nM | > 260 nM | > 260 nM | > 260 nM | 95 A^2 | 2.2 nM | 2.2 nM | 1.5 nM | 2.81 nM | 5.2 nM | 5.2 nM | 2.95 nM | 7.53 nM | 53.3% | 85% | 3.32 ×10⁻⁶ cm/s | loss of potency compared to compound (A1) (growth inhibition) [3]: ~10 fold
C=C1C(=O)NC(C)C(=O)N(C)C(C)C(=O)NC(C(O)C(C)C)C(=O)N(C)C(C(C)OC)C(=O)OC(C)C(NC(C)=O)C(=O)OC(Cc2ccccc2)C(=O)N1C (stereo not drawn) [Compound 15] (Ac-T[PhLac][NMeDha]A[NMeA][ξLeu(3ξ-OH)][NMeT](Me); ester 1-C; configuration not given here) | > 10000 nM | > 10000 nM | > 10000 nM | > 10000 nM | > 10000 nM | > 10000 nM | > 10000 nM | > 10000 nM | 109 A^2 | > 10000 nM | > 10000 nM | > 10000 nM | > 10000 nM | > 10000 nM | > 10000 nM | > 10000 nM | > 10000 nM | 15% | 90% | 0.79 ×10⁻⁶ cm/s | antiproliferative activity (in words) [3]: some antiproliferative activity observed at the highest doses tested; GI50 ([3]; cell line not specified): > 10000 nM; change in EPSA (in words) [4, 24]: slight changes; reduction in % FA [7, 24]: ~5 fold
